Tests used:
mice (129Sv background) [1] = assay: mice, 48 hrs fasting / 48 hrs refeeding fat free diet; type: in vivo
Description: The drug-like chemical structure of fatostatin A prompted the inventors to investigate its ability to inhibit SREBP-1 in the liver of whole animals. The effect of fatostatin A on hepatic SREBP-1 under lipogenic conditions of prolonged fasting (48 hours) followed by feeding fat free high carbohydrate diet for another 48 hours was examined. Mice were intraperitoneally injected with fatostatin A at 30 mg/kg/day for 5 days starting one day prior to the 48-hour fasting period. After 48 hours of fasting, the treated group lost more weight than the control group did (6.12±0.6 compared to 4.9±0.3 gram/mouse; p=0.01.) (FIG. 6A).
The expression levels of SREBP-1 in the liver extracts were examined by western blots. […] The hepatic expression of fatty acid synthase (FAS), a representative of SREBP-1-responsive lipogenic enzymes (Boizard et al., 1998), was also determined after the treatment. […] The activity of acetyl-CoA carboxylase (ACC) (FIG. 6F), which is also regulated by SREBP-1, decreased in liver extracts as observed for FAS (FIG. 6G).
Male mice (129Sv background) were housed under controlled conditions (12-hr light/dark cycle; 25° C.) in the Animal Care Center at Baylor College of Medicine and had ad libitum access to standard laboratory chow (Purina Mills) and water. Fatostatin A was administered intraperitoneally (30 mg/kg; 150 μL) to 5-6 month old male mice (129Sv background) using two different protocols. First protocol involves fasting the mice for 48 hrs, followed by refeeding fat free diet for another 48 hrs. This treatment induces both activities and levels of lipogenic enzymes such as ACC and FAS in addition to SREBPs. The administration of fatostatin A or 10% DMSO in PBS to control groups (n=5) started 24 hrs before the fasting and continued daily until the end of the experiment.
(§1) In the second protocol, two groups of male mice (n=5) were treated daily for two weeks with either 30 mg/kg fatostatin A or 10% DMSO in PBS. Food intake and body weight were measured daily. At the end of the experiments, the mice were briefly fasted for 4-5 hrs, and their blood was withdrawn for determination of serum constituents. The mice were then sacrificed, and their livers were quickly removed and ground to powder in liquid nitrogen. The powdered tissues were suspended in 10 ml of PBS containing 0.1 mM PMSF, 5 mM benzamidine, and 5 mg/mL protease inhibitor cocktail (Roche), homogenized using Polytron (3×30 Sec, at a high speed), and sonicated briefly to degrade DNA. The extracts were clarified by centrifugation at 16,000×g for 20 min. The samples were then subjected to western blot analysis using commercially available antibodies against FAS and SREBP-1. FAS and ACC activities were determined as described earlier (Mao et al., 2006).

mice (129Sv background) [2] = assay: mice, two-week treatment, normal diet; type: in vivo, mouse; details: two weeks
Description: Food intake was similar between both groups (3.8 and 3.5 g/mouse/day for treated and control mice, respectively).
as §1

ob/ob mice = assay: GC-MS analyses of fatty acids in the livers of ob/ob mice; type: in vivo, mouse
Description: Liver samples (100 mg) obtained from fatostatin A-treated ob/ob mice and non-treated control mice and stored at −80° C. until analyzed for fatty acid contents. The fatty acids were extracted according to Folch's protocol and quantitatively analyzed using gas chromatography-mass spectrometry (GC-SM). As shown in the above table, there is about 50% reduction of C14:0 and C16:0, the products of the de novo fatty acid synthesis, and about 70% reduction of monounsaturated fatty acids C16:1, C18:1 and C20:1 and their elongation-desaturation products (C18:2)N-6, (C18:3)N-6, (C20:2)N-6, (C20-3)N-6 and (C20:5)N-3. Myristate (C14:0) and palmitate (C16:0), the products of FAS, were reduced by about 50% (P<0.05). There was no change in C18 levels, which is derived not only from de novo fatty acid synthesis by FAS, but also from food and chain elongation system. […] Also, the levels of polyunsaturated long-chain fatty acids (18:2)N-6, (18:3)N-6, (20:2)N-6, (20:3)N-6 and (20:5)N-3 were reduced 30-60%. These reductions are the result of down regulation of key enzymes in the lipogenic pathways (FAS, ACC and SCD, ACL) at transcription and translation.
Four- to 5-week old homozygous male obese (ob/ob) mice (C57BL/6J, The Jackson Laboratory, Bar Harbor, Me.) were housed under controlled conditions (12-hr light/dark cycle; 25° C.). The animals were housed 5 per cage and had ad libitum access to standard laboratory chow (Purina Mills, Richmond Ind.) and water for one week after their arrival. On first day of the experiment and every day thereafter the weight of the mice and the amount of the food consumed were measured. The weight of mice and food remaining were measured daily between 3-5 p.m. before the ip injection of fatostatin A (30 mg/kg; 150 μL). The administration of Fatostatin A or 10% DMSO in PBS to control groups (n=5) continued daily for four weeks till the end of the study.

SMILES: CCCc1cc(-c2nc(-c3ccc(C)cc3)cs2)ccn1 [Compound 1, 2-propyl-4-(4-p-tolylthiazol-2-yl)pyridine]
- decrease of FAS expression level in liver extracts (western blot) (mice (129Sv background) [1]; 30 mg/kg/day ip): up to 30%
- food intake and toxicity during the treatment (mice (129Sv background) [1]; 30 mg/kg/day ip for 5 days): No reduction of food intake or obvious toxicity
- weight lost after 48 hours of fasting (mice (129Sv background) [1]; 30 mg/kg/day ip, control 4.9±0.3): 6.12±0.6 gram/mouse
- serum glucose (mice (129Sv background) [1]; after 48 hours of refeeding fat free high carbohydrate diet, control 137±14): 110 ± 23 mg/dL
- serum LDL (mice (129Sv background) [1]; after 48 hours of refeeding, control 30±6): 16 ± 5 mg/dL
- serum cholesterol (mice (129Sv background) [1]; after 48 hours of refeeding, control 120±19): 93 ± 20 mg/dL
- loss of body weight (mice (129Sv background) [2]; 30 mg/kg daily, normal diet, control no change): 10%
- decrease of FAS activity and its protein level in liver (mice (129Sv background) [2]; 30 mg/kg daily): about 30%
- food intake (mice (129Sv background) [2]; control 3.5): 3.8 g/mouse/day
- Fatty Acid (14:0) Ratio treated:control (ob/ob mice; ob/ob mice liver): 0.5148
- Fatty Acid (16:0) Ratio treated:control (ob/ob mice; ob/ob mice liver): 0.4367
- Fatty Acid (16:1) Ratio treated:control (ob/ob mice; ob/ob mice liver): 0.3285
- Fatty Acid (18:0) Ratio treated:control (ob/ob mice; ob/ob mice liver): 1.066
- Fatty Acid (18:1) Ratio treated:control (ob/ob mice; ob/ob mice liver): 0.2922
- Fatty Acid (18:2)N-6 Ratio treated:control (ob/ob mice; ob/ob mice liver): 0.638
- Fatty Acid (18:3)N-3 Ratio treated:control (ob/ob mice; ob/ob mice liver): 1.218
- Fatty Acid (18:3)N-6 Ratio treated:control (ob/ob mice; ob/ob mice liver): 0.4232
- Fatty Acid (20:0) Ratio treated:control (ob/ob mice; ob/ob mice liver): 0.8517
- Fatty Acid (20:1) Ratio treated:control (ob/ob mice; ob/ob mice liver): 0.3245
- Fatty Acid (20:2)N-6 Ratio treated:control (ob/ob mice; ob/ob mice liver): 0.4668
- Fatty Acid (20:3)N-6 Ratio treated:control (ob/ob mice; ob/ob mice liver): 0.6297
- Fatty Acid (20:4)N-6 Ratio treated:control (ob/ob mice; ob/ob mice liver): 1.125
- Fatty Acid (20:5)N-3 Ratio treated:control (ob/ob mice; ob/ob mice liver): 0.6994
- Fatty Acid (22:0) Ratio treated:control (ob/ob mice; ob/ob mice liver): 1.266
- Fatty Acid (22:1) Ratio treated:control (ob/ob mice; ob/ob mice liver): 0.871
- Fatty Acid (22:4)N-6 Ratio treated:control (ob/ob mice; ob/ob mice liver): 0.959
- Fatty Acid (22:5)N-3 Ratio treated:control (ob/ob mice; ob/ob mice liver): 0.7357
- Fatty Acid (22:5)N-6 Ratio treated:control (ob/ob mice; ob/ob mice liver): 1.18
- Fatty Acid (22:6)N-3 Ratio treated:control (ob/ob mice; ob/ob mice liver): 1.058
- Fatty Acid (24:0) Ratio treated:control (ob/ob mice; ob/ob mice liver): 1.308
- Fatty Acid (24:1) Ratio treated:control (ob/ob mice; ob/ob mice liver): 1.699
- Fatty Acid (16:0) in liver (ob/ob mice; treated ob/ob mice): 37100 ± 3660 nmol/g liver
- Fatty Acid (16:1) in liver (ob/ob mice; treated ob/ob mice): 11400 ± 228 nmol/g liver
- Fatty Acid (18:0) in liver (ob/ob mice; treated ob/ob mice): 15100 ± 916 nmol/g liver
- Fatty Acid (18:1) in liver (ob/ob mice; treated ob/ob mice): 44500 ± 8840 nmol/g liver
- Fatty Acid (18:2)N-6 in liver (ob/ob mice; treated ob/ob mice): 29700 ± 2460 nmol/g liver
- Fatty Acid (20:0) in liver (ob/ob mice; treated ob/ob mice): 164 ± 22.9 nmol/g liver
- Fatty Acid (22:0) in liver (ob/ob mice; treated ob/ob mice): 116 ± 26 nmol/g liver
- Fatty Acid (24:0) in liver (ob/ob mice; treated ob/ob mice): 158 ± 7.02 nmol/g liver
- increase in C24:0 in livers (ob/ob mice; vs untreated control mice): 30%
- lowering of C20:0 in livers (ob/ob mice; vs untreated control mice): about 15%
- reduction of (18:2)N-6, (18:3)N-6, (20:2)N-6, (20:3)N-6 and (20:5)N-3 in livers (ob/ob mice; vs untreated control mice): 30-60%
- reduction of (C18:2)N-6, (C18:3)N-6, (C20:2)N-6, and (C20-3)N-6 in livers (ob/ob mice; vs untreated control mice): about 50%
- reduction of C14:0 and C16:0 in livers (ob/ob mice; vs untreated control mice): about 50%
- reduction of monounsaturated fatty acids C16:1, C18:1 and C20:1 in livers (ob/ob mice; vs untreated control mice): about 70%

— patent publication US9713613B2, “Methods and compositions for the treatment of cancer and related hyperproliferative disorders” (priority 2007, dated 2017)
